Results from patent US20110171279A1, “POLYETHYLENIMINE BIOCIDES” (NDSU RESEARCH FOUNDATION, priority 2009, published 2011).
Values after ≈ are worked out from the molar mass of the structure shown. Where two headings read alike, the source gives them in different places.

Columns and labels:
Format in all cases: cell-based
[1] = test system: Cellulophaga lytica; assay: Growth reduction / MIC test against Cellulophaga lytica; settings: for MIC: Cellulophaga lytica; for Percent reduction in growth of Cellulophaga lytica: Table 5
Experimental: (§1) The antimicrobial properties of the Formulations were determined by measuring the minimum inhibitory concentration (MIC) or by using an adaptation of the MIC test. […] Additional details of the MIC method can be found at Andrews, J. M., Journal of Antimicrobial Chemotherapy (2001) 48, 5-16, incorporated herein by reference in its entirety.
(§2) In accordance with the MIC test, working solutions for each Formulation were prepared by dissolving 100 mg of each Formulation in 10 mL of methanol (Sigma-Aldrich) to generate a 10 mg/mL solution. Next, 10 ml of Guillard's F/2 medium was spiked with 200 μL of the 10 mg/mL Formulation solution to achieve a final concentration of 0.2 mg/mL.
(§3) 0.2 mL of each concentration of each Formulation (spiked with C. lytica) was added in triplicate to a 96-well plate. Additionally, 0.2 mL of Guillard's F/2 medium without any C. lytica or Formulation and 0.2 mL of Guillard's F/2 medium with C. lytica, but no Formulations, served as negative and positive growth controls, respectively. The 96-well plates were placed in an illuminated growth cabinet with a 16:8 light:dark cycle (photon flux density 33 μmol m^−2 s^−1) for 48 hrs at 18° C. and measured for chlorophyll fluorescence using a multi-well plate spectrophotometer (excitation: 360 nm; emission: 670 nm). The efficacy of each Formulation was measured by determining the percent reduction in diatom growth as a function of Formulation concentration.
(§4) The antimicrobial activity of Formulations 10-12, also derived from ETCS and PEI, was determined toward a suite of marine microorganisms, namely, Pseudoalteromonas atlantica, Cellulophaga lytica, Cobetia marina, and Halomonas pacifica. The antimicrobial activity of Formulations 10-12 was determined toward these marine microorganisms according to the methods of EXAMPLES 5-7. The MIC for each Formulation against each strain is compared to that of the PEI, ETCS, and TCS (alone) in Table 7.

[2] = test system: Pseudoalteromonas atlantica; assay: MIC test against Pseudoalteromonas atlantica
Experimental: as §1, §4

[3] = test system: Navicula incerta; assay: Growth reduction / MIC test against Navicula incerta in Guillard's F/2 medium, chlorophyll fluorescence; settings: for Percent reduction in growth of Navicula incerta: Table 4
Experimental: as §1, §2
as §3, with “N. incerta)” for “C. lytica)”, “N. incerta” for “C. lytica”, “N. incerta,” for “C. lytica,”

[4] = test system: Cobetia marina; assay: MIC test against Cobetia marina
Experimental: as §1, §4

[5] = test system: Staphylococcus epidermidis; assay: Growth reduction / MIC test against Staphylococcus epidermidis in tryptic soy broth, absorbance 600 nm; settings: for Percent reduction in growth of Staphylococcus epidermidis: Table 2; for MIC: Staphylococcus epidermidis, read-out: S. epidermidis MIC
Experimental: as §1
as §2, with “tryptic soy broth” for “Guillard's F/2 medium”, “the” for “the 10”
0.2 mL of each concentration of each Formulation (spiked with S. epidermidis) was added in triplicate to a 96-well plate. Additionally, 0.2 mL of tryptic soy broth without any S. epidermidis or Formulation and 0.2 mL of tryptic soy broth with S. epidermidis, but no Formulations, served as negative and positive growth controls, respectively. Plates were then placed in an incubator, at 37° C. for 24 hrs (with shaking), and then measured for growth by taking absorbance measurements at 600 nm with a multi-well plate spectrophotometer (Synergy HT microplate reader, BioTek Instruments, Winooski, Vt.). The efficacy of each Formulation was measured by determining the percent reduction in bacterial growth as a function of Formulation concentration.
For comparison purposes a benzylpiperidino biocide (“Reference 1”) was prepared using ETCS and synthetic methods similar to those described in U.S. Pat. No. 5,036,077, issued Jul. 30, 1991, and incorporated by reference in its entirety. To make Reference 1, 3.9 g of ETCS and 2 g of 4-benzylpiperidine were reacted in 30 mL of methanol. The mixture was heated at 65° C. for 48 hours. Reaction completion was confirmed by ^1H NMR, ^13C NMR, HMQC (2D) NMR and elemental analysis. The antimicrobial activity of Formulations 69-77 and Reference 1 toward S. epidermidis was measured by determining the percent reduction in bacterial growth as a function of concentration, as was done above in EXAMPLE 3.

[6] = Formulation Concentration 0.78125 μg/mL
[7] = Formulation Concentration 1.5625 μg/mL
[8] = Formulation Concentration 3.125 μg/mL
[9] = Formulation Concentration 6.25 μg/mL
[10] = Formulation Concentration 12.5 μg/mL
[11] = Formulation Concentration 25 μg/mL
[12] = Formulation Concentration 50 μg/mL
[13] = Formulation Concentration 100 μg/mL

SMILES | Percent reduction in growth of Cellulophaga lytica [1, 6] | Percent reduction in growth of Cellulophaga lytica [1, 7] | Percent reduction in growth of Cellulophaga lytica [1, 8] | Percent reduction in growth of Cellulophaga lytica [1, 9] | Percent reduction in growth of Cellulophaga lytica [1, 10] | Percent reduction in growth of Cellulophaga lytica [1, 11] | Percent reduction in growth of Cellulophaga lytica [1, 12] | Percent reduction in growth of Cellulophaga lytica [1, 13] | Percent reduction in growth of Navicula incerta [3, 6] | Percent reduction in growth of Navicula incerta [3, 7] | Percent reduction in growth of Navicula incerta [3, 8] | Percent reduction in growth of Navicula incerta [3, 9] | Percent reduction in growth of Navicula incerta [3, 10] | Percent reduction in growth of Navicula incerta [3, 11] | Percent reduction in growth of Navicula incerta [3, 12] | Percent reduction in growth of Navicula incerta [3, 13] | Percent reduction in growth of Staphylococcus epidermidis [5, 6] | Percent reduction in growth of Staphylococcus epidermidis [5, 7] | Percent reduction in growth of Staphylococcus epidermidis [5, 8] | Percent reduction in growth of Staphylococcus epidermidis [5, 9] | other results
Clc1ccc(Oc2ccc(Cl)cc2OCC2CO2)c(Cl)c1 (centres unmarked) [ETCS, 2-((5-chloro-2-(2,4-dichlorophenoxy)phenoxy)methyl)oxirane] | 0.00% | 5.92% | 10.06% | 11.24% | 33.73% | 57.40% | 69.23% | 14.20% | 0.00% | 0.00% | 0.00% | 0.00% | 34.14% | 89.92% | 91.40% | 93.37% | 0.00% | 9.43% | 8.30% | 16.36% | MIC ([1]; Table 7, read-out: C. lytica MIC): > 100 µg/mL; C. lytica MIC ([1]; Table 12): >100 µg/mL; MIC ([2]; Table 7, read-out: P. atlantica MIC): > 100 µg/mL; MIC ([4]; Table 7, read-out: C. marina MIC): > 100 µg/mL; Percent reduction in growth of Staphylococcus epidermidis [5, 10]: 18.64%; Percent reduction in growth of Staphylococcus epidermidis [5, 11]: 17.39%; Percent reduction in growth of Staphylococcus epidermidis [5, 12]: 22.16%; Percent reduction in growth of Staphylococcus epidermidis [5, 13]: 9.55%; MIC ([5]; Table 12): > 100 µg/mL
Oc1cc(Cl)ccc1Oc1ccc(Cl)cc1Cl [TCS, triclosan] | 12.29% | 32.40% | 59.78% | 86.87% | 86.87% | 87.15% | 87.15% | 86.59% | 14.26% | 22.00% | 84.51% | 91.29% | 94.57% | 93.55% | 94.21% | 94.95% | 81.36% | 86.70% | 92.70% | 92.96% | MIC ([1]; read-out: C. lytica MIC, Table 7): 6.25 to 12.5 µg/mL (≈ 21.6 to 43.2 µM); MIC ([1]; read-out: C. lytica MIC, Table 12): 12.5 µg/mL (≈ 43.2 µM); MIC ([2]; read-out: P. atlantica MIC): 50 µg/mL (≈ 173 µM); MIC ([3]; read-out: N. incerta MIC): 3.12 µg/mL (≈ 10.8 µM); MIC ([4]; read-out: C. marina MIC): > 100 µg/mL; Percent reduction in growth of Staphylococcus epidermidis [5, 10]: 93.09%; Percent reduction in growth of Staphylococcus epidermidis [5, 11]: 92.83%; Percent reduction in growth of Staphylococcus epidermidis [5, 12]: 93.09%; Percent reduction in growth of Staphylococcus epidermidis [5, 13]: 93.35%; MIC [5]: 0.781 µg/mL
